# Assay results: PMC7126861 (Bioorganic & Medicinal Chemistry Letters, 2010)
# Molecular target: SARS-CoV 3CL^pro (Severe acute respiratory syndrome coronavirus, UniProt P0C6X7)
# Experiment: biochemical
row,Structure (SMILES),IC50 [µM]
1,N#Cc1c(-c2ccccc2)nc(SCCc2ccccc2)[nH]c1=O [Compound 6b],> 50
2,Cc1ccc(-c2nc(SCCc3ccccc3)[nH]c(=O)c2C#N)cc1 [Compound 6h],> 50
3,N#Cc1c(-c2ccccc2)nc(SCc2ccccc2)[nH]c1=O [Compound 6a],> 50
4,N#Cc1c(-c2cccc([N+](=O)[O-])c2)nc(SCCc2ccccc2)[nH]c1=O [Compound 6j],> 50
5,COc1ccc(-c2nc(SCc3ccccc3)[nH]c(=O)c2C#N)cc1 [Compound 6d],> 50
6,Cc1ccc(-c2nc(SCc3ccc([N+](=O)[O-])cc3)[nH]c(=O)c2C#N)cc1 [Compound 6i],> 50
7,Cc1ccc(-c2nc(SCc3ccccc3)[nH]c(=O)c2C#N)cc1 [Compound 6g],> 50
8,N#Cc1c(-c2cccc(Cl)c2)nc(SCc2ccccc2)[nH]c1=O [Compound 6n],> 50
